Assay results: US20260098061A1, “EPHA2-BINDING PENDING PEPTIDE AND COMPOSITION COMPRISING SAME” (PeptiDream Inc., priority 2022, published 2026)
Numbered stars: 1 amine (or outer) side, 2 acyl side, 3 side chain; on linkers, the order of the positions; unused ones are H or OH. Bridge positions count the residues as written; N and C are the ends. Square brackets hold non-standard residues; d marks the D form. Side chains are listed from the residue outwards. Peptide text beside a SMILES is read from it. * marks the point of attachment. NH(1-deoxy-D-glucityl) = OC[C@@H](O)[C@@H](O)[C@H](O)[C@@H](O)CN*; Trp(1-Me,7-Cl) = Cn1cc(C[C@H](N)C(=O)O)c2cccc(Cl)c21; dPhe(3-CONH2) = NC(=O)c1cccc(C[C@@H](N)C(=O)O)c1; Piperazinyl(4-CH2COOH) = O=C(O)CN1CCN(*)CC1; Trp(1-Me) = Cn1cc(C[C@H](N)C(=O)O)c2ccccc21; NMe3Pal = CN[C@@H](Cc1cccnc1)C(=O)O; NMeF = CN[C@@H](Cc1ccccc1)C(=O)O; hCit = NC(=O)NCCCC[C@H](N)C(=O)O; Gly(cBu) = N[C@H](C(=O)O)C1CCC1; NMeE = CN[C@@H](CCC(=O)O)C(=O)O; Aad = N[C@@H](CCCC(=O)O)C(=O)O; NMeN = CN[C@@H](CC(N)=O)C(=O)O; Chg = N[C@H](C(=O)O)C1CCCCC1; CO = O=C([*:1])[*:2]; βAla = NCCC(=O)O

Target: T1, Recombinant Human EphA2 Fc Protein (Homo sapiens, UniProt P29317)
T1 construct: purchased Elabscience
Assay: SPR interaction analysis (Biacore T200), kinetics of peptides against EphA2
Assay type: binding
Settings: Recombinant Human EphA2 Fc Protein captured by Human Antibody Capture kit; single-cycle kinetics; 25° C.; HBS-P+ buffer with 1% DMSO
Outline: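 On a Biacore T200 at 25° C, Fc-tagged human EphA2 was captured via anti-human antibody; peptides ran as five serial dilutions in HBS-P+ pH 7.4 with 1% DMSO by single-cycle kinetics. Baseline-subtracted data fitted for ka and kd, from which KD was derived.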

Row | SMILES | Kd [nM]
1 | CC(C)C[C@@H]1NC(=O)[C@H](CC(N)=O)NC(=O)[C@H](Cc2ccccc2)N(C)C(=O)[C@@H](Cc2cccc(C(N)=O)c2)NC(=O)CSC[C@@H](C(N)=O)NC(=O)[C@H](CCCC(N)=O)NC(=O)[C@H]([C@@H](C)O)NC(=O)[C@H](Cc2cn(C)c3ccccc23)NC(=O)[C@H](C(C)C)NC(=O)[C@H](Cc2cn(C)c3c(Cl)cccc23)NC(=O)[C@H](CC(N)=O)N(C)C(=O)[C@H](CCCC(N)=O)NC1=O [PDC_EphA2-00019422, df3CON-MeF-N-L-Hgn-MeN-W1Me7Cl-V-W1Me-T-Hgn-C-NH2] ({CH2CO}-[dPhe(3-CONH2)][NMeF]NL[Aad](NH2)[NMeN][Trp(1-Me,7-Cl)]V[Trp(1-Me)]T[Aad](NH2)C-NH2; thioether N-12) | < 1
2 | CN1C(=O)[C@H](CO)NC(=O)[C@H](C2CCC2)NC(=O)[C@H](CC(N)=O)NC(=O)[C@H](Cc2cccnc2)N(C)C(=O)[C@@H](Cc2cccc(C(N)=O)c2)NC(=O)CSC[C@@H](C(N)=O)NC(=O)[C@H](Cc2cn(C)c3ccccc23)NC(=O)[C@H](CCCCNC(N)=O)NC(=O)[C@H](Cc2cn(C)c3c(Cl)cccc23)NC(=O)[C@@H]1Cc1cccnc1 [PDC_EphA2-00026602, df3CON-Me3Py-N-Cbg-S-Me3Py-W1Me7Cl-Hcit-W1Me-C-NH2] ({CH2CO}-[dPhe(3-CONH2)][NMe3Pal]N[Gly(cBu)]S[NMe3Pal][Trp(1-Me,7-Cl)][hCit][Trp(1-Me)]C-NH2; thioether N-10) | < 1
3 | CC(=O)NCCCC[C@@H](NC(=O)CCNC(=O)[C@@H]1CSCC(=O)N[C@H](C)C(=O)N(C)[C@@H](Cc2cccnc2)C(=O)N[C@@H](CC(N)=O)C(=O)N[C@@H](CC(C)C)C(=O)N[C@@H](CCCC(N)=O)C(=O)N(C)[C@@H](CCC(=O)O)C(=O)N[C@@H](Cc2cn(C)c3ccccc23)C(=O)N[C@@H](CCCCNC(=O)N2CCN(CC(=O)O)CC2)C(=O)N[C@@H](Cc2cn(C)c3ccccc23)C(=O)N[C@@H]([C@@H](C)O)C(=O)N[C@@H](CCCC(N)=O)C(=O)N1)C(N)=O [PDC_EphA2-00007196, da-Me3Py-N-L-Hgn-MeE-W1Me-KCOpipzaa-W1Me-T-Hgn-C-bA-dkAc-NH2] ({CH2CO}-[dA][NMe3Pal]NL[Aad](NH2)[NMeE][Trp(1-Me)]K([CO-Piperazinyl(4-CH2COOH)])[Trp(1-Me)]T[Aad](NH2)C[βAla][dK](Ac)-NH2; thioether N-12) | < 1
4 | CC(=O)NCCCC[C@@H](NC(=O)CCNC(=O)[C@@H]1CSCC(=O)N[C@H](CCCCNC(=O)N2CCN(CC(=O)O)CC2)C(=O)N(C)[C@@H](Cc2cccnc2)C(=O)N[C@@H](CC(N)=O)C(=O)N[C@@H](CC(C)C)C(=O)N[C@@H](CCCCNC(=O)N2CCN(CC(=O)O)CC2)C(=O)N(C)[C@@H](Cc2ccccc2)C(=O)N[C@@H](Cc2cn(C)c3ccccc23)C(=O)N[C@@H](C(C)C)C(=O)N[C@@H](Cc2cn(C)c3ccccc23)C(=O)N[C@@H]([C@@H](C)O)C(=O)N[C@@H](CCC(=O)O)C(=O)N1)C(N)=O [PDC_EphA2-00008085, dkCOpipzaa-Me3Py-N-L-KCOpipzaa-MeF-W1Me-V-W1Me-T-E-C-bA-dkAc-NH2] ({CH2CO}-[dK]([CO-Piperazinyl(4-CH2COOH)])[NMe3Pal]NLK([CO-Piperazinyl(4-CH2COOH)])[NMeF][Trp(1-Me)]V[Trp(1-Me)]TEC[βAla][dK](Ac)-NH2; thioether N-12) | 1 to 10
5 | CC(=O)NCCCC[C@@H](NC(=O)CCNC(=O)[C@@H]1CSCC(=O)N[C@H](C)C(=O)N(C)[C@@H](Cc2cccnc2)C(=O)N[C@@H](CC(N)=O)C(=O)N[C@@H](CC(C)C)C(=O)N[C@@H](CCCCNC(=O)N2CCN(CC(=O)O)CC2)C(=O)N(C)[C@@H](CCC(=O)O)C(=O)N[C@@H](Cc2cn(C)c3ccccc23)C(=O)N[C@@H](CCCCNC(=O)N2CCN(CC(=O)O)CC2)C(=O)N[C@@H](Cc2cn(C)c3ccccc23)C(=O)N[C@@H]([C@@H](C)O)C(=O)N[C@@H](CCCC(N)=O)C(=O)N1)C(N)=O [PDC_EphA2-00008095, da-Me3Py-N-L-KCOpipzaa-MeE-W1Me-KCOpipzaa-W1Me-T-Hgn-C-bA-dkAc-NH2] ({CH2CO}-[dA][NMe3Pal]NLK([CO-Piperazinyl(4-CH2COOH)])[NMeE][Trp(1-Me)]K([CO-Piperazinyl(4-CH2COOH)])[Trp(1-Me)]T[Aad](NH2)C[βAla][dK](Ac)-NH2; thioether N-12) | < 1
6 | CC(C)C[C@@H]1NC(=O)[C@H](CC(N)=O)NC(=O)[C@H](Cc2cccnc2)N(C)C(=O)[C@@H](Cc2cccc(C(N)=O)c2)NC(=O)CSC[C@@H](C(N)=O)NC(=O)[C@H](Cc2cn(C)c3ccccc23)NC(=O)[C@H](CCCCNC(N)=O)NC(=O)[C@H](Cc2cn(C)c3c(Cl)cccc23)NC(=O)[C@H](Cc2ccccc2)N(C)C(=O)[C@H](CO)NC1=O [PDC_EphA2-00026600, df3CON-Me3Py-N-L-S-MeF-W1Me7Cl-Hcit-W1Me-C-NH2] ({CH2CO}-[dPhe(3-CONH2)][NMe3Pal]NLS[NMeF][Trp(1-Me,7-Cl)][hCit][Trp(1-Me)]C-NH2; thioether N-10) | 1 to 10

Other lines, results leading:

Row | Kd [nM] | SMILES
7 | < 1 | C[C@@H](O)[C@@H]1NC(=O)[C@H](Cc2cn(C)c3ccccc23)NC(=O)[C@H](CCC(=O)NC[C@H](O)[C@@H](O)[C@H](O)[C@H](O)CO)NC(=O)[C@H](Cc2cn(C)c3c(Cl)cccc23)NC(=O)[C@H](Cc2ccccc2)N(C)C(=O)[C@H](CCCC(N)=O)NC(=O)[C@H](C2CCC2)NC(=O)[C@H](CC(N)=O)NC(=O)[C@H](Cc2cccnc2)N(C)C(=O)[C@@H](Cc2cccc(C(N)=O)c2)NC(=O)CSC[C@@H](C(N)=O)NC(=O)[C@H](CCCC(N)=O)NC1=O [PDC_EphA2-00019433, df3CON-Me3Py-N-Cbg-Hgn-MeF-W1Me7Cl-Qglucamine-W1Me-T-Hgn-C-NH2] ({CH2CO}-[dPhe(3-CONH2)][NMe3Pal]N[Gly(cBu)][Aad](NH2)[NMeF][Trp(1-Me,7-Cl)]E(NH(1-deoxy-D-glucityl))[Trp(1-Me)]T[Aad](NH2)C-NH2; thioether N-12)
8 | < 1 | C[C@H]1NC(=O)CSC[C@@H](C(N)=O)NC(=O)[C@H](CC(=O)N(C)C)NC(=O)[C@H]([C@@H](C)O)NC(=O)[C@H](Cc2cn(C)c3ccccc23)NC(=O)[C@H](CCCCNC(=O)N2CCN(CC(=O)O)CC2)NC(=O)[C@H](Cc2cn(C)c3ccccc23)NC(=O)[C@H](Cc2ccccc2)N(C)C(=O)[C@H](CCCC(N)=O)NC(=O)[C@H](C2CCCCC2)NC(=O)[C@H](CC(N)=O)NC(=O)[C@H](Cc2cccnc2)N(C)C1=O [PDC_EphA2-00018540, da-Me3Py-N-Chg-Hgn-MeF-W1Me-KCOpipzaa-W1Me-T-Ndm-C-NH2] ({CH2CO}-[dA][NMe3Pal]N[Chg][Aad](NH2)[NMeF][Trp(1-Me)]K([CO-Piperazinyl(4-CH2COOH)])[Trp(1-Me)]TD(NMe2)C-NH2; thioether N-12)
9 | < 1 | C[C@H]1NC(=O)CSC[C@@H](C(N)=O)NC(=O)[C@H](CCCC(N)=O)NC(=O)[C@H]([C@@H](C)O)NC(=O)[C@H](Cc2cn(C)c3ccccc23)NC(=O)[C@H](CCCCNC(=O)N2CCN(CC(=O)O)CC2)NC(=O)[C@H](Cc2cn(C)c3ccccc23)NC(=O)[C@H](CC(N)=O)N(C)C(=O)[C@H](CCCC(N)=O)NC(=O)[C@H](C2CCC2)NC(=O)[C@H](CC(N)=O)NC(=O)[C@H](Cc2cccnc2)N(C)C1=O [PDC_EphA2-00010001, da-Me3Py-N-Cbg-Hgn-MeN-W1Me-KCOpipzaa-W1Me-T-Hgn-C-NH2] ({CH2CO}-[dA][NMe3Pal]N[Gly(cBu)][Aad](NH2)[NMeN][Trp(1-Me)]K([CO-Piperazinyl(4-CH2COOH)])[Trp(1-Me)]T[Aad](NH2)C-NH2; thioether N-12)
10 | < 1 | CN1C(=O)[C@H](CCC(=O)NC[C@H](O)[C@@H](O)[C@H](O)[C@H](O)CO)NC(=O)[C@H](C2CCC2)NC(=O)[C@H](CC(N)=O)NC(=O)[C@H](Cc2cccnc2)N(C)C(=O)[C@@H](Cc2cccc(C(N)=O)c2)NC(=O)CSC[C@@H](C(N)=O)NC(=O)[C@H](Cc2cn(C)c3ccccc23)NC(=O)[C@H](CCCCNC(=O)N2CCN(CC(=O)O)CC2)NC(=O)[C@H](Cc2cn(C)c3c(Cl)cccc23)NC(=O)[C@@H]1Cc1cccnc1 [PDC_EphA2-00026603, df3CON-Me3Py-N-Cbg-Qglucamine-Me3Py-W1Me7Cl-KCOpipzaa-W1Me-C-NH2] ({CH2CO}-[dPhe(3-CONH2)][NMe3Pal]N[Gly(cBu)]E(NH(1-deoxy-D-glucityl))[NMe3Pal][Trp(1-Me,7-Cl)]K([CO-Piperazinyl(4-CH2COOH)])[Trp(1-Me)]C-NH2; thioether N-10)
11 | 1 to 10 | CC(=O)NCCCC[C@@H](NC(=O)CCNC(=O)[C@@H]1CSCC(=O)N[C@@H](C)C(=O)N(C)[C@@H](Cc2cccnc2)C(=O)N[C@@H](CC(N)=O)C(=O)N[C@@H](CC(C)C)C(=O)N[C@@H](CCCC(=O)O)C(=O)N(C)[C@@H](Cc2ccccc2)C(=O)N[C@@H](Cc2cn(C)c3ccccc23)C(=O)N[C@@H](CCCCNC(=O)N2CCN(CC(=O)O)CC2)C(=O)N[C@@H](Cc2cn(C)c3ccccc23)C(=O)N[C@@H]([C@@H](C)O)C(=O)N[C@@H](CCC(=O)O)C(=O)N1)C(N)=O [PDC_EphA2-00008097, A-Me3Py-N-L-Hgl-MeF-W1Me-KCOpipzaa-W1Me-T-E-C-bA-dkAc-NH2] ({CH2CO}-A[NMe3Pal]NL[Aad][NMeF][Trp(1-Me)]K([CO-Piperazinyl(4-CH2COOH)])[Trp(1-Me)]TEC[βAla][dK](Ac)-NH2; thioether N-12)
12 | < 1 | CC(=O)NCCCC[C@@H](NC(=O)[C@@H]1CSCC(=O)N[C@H](C)C(=O)N(C)[C@@H](Cc2cccnc2)C(=O)N[C@@H](CC(N)=O)C(=O)N[C@@H](CC(C)C)C(=O)N[C@@H](CCCCNC(=O)N2CCN(CC(=O)O)CC2)C(=O)N(C)[C@@H](Cc2ccccc2)C(=O)N[C@@H](Cc2cn(C)c3ccccc23)C(=O)N[C@@H](CCCCNC(=O)N2CCN(CC(=O)O)CC2)C(=O)N[C@@H](Cc2cn(C)c3ccccc23)C(=O)N[C@@H]([C@@H](C)O)C(=O)N[C@@H](CCC(=O)O)C(=O)N1)C(N)=O [PDC_EphA2-00008090, da-Me3Py-N-L-KCOpipzaa-MeF-W1Me-KCOpipzaa-W1Me-T-E-C-dkAc-NH2] ({CH2CO}-[dA][NMe3Pal]NLK([CO-Piperazinyl(4-CH2COOH)])[NMeF][Trp(1-Me)]K([CO-Piperazinyl(4-CH2COOH)])[Trp(1-Me)]TEC[dK](Ac)-NH2; thioether N-12)
